From US20260183286A1, “Compositions and Methods for an Oral Supplement to Oral Minoxidil for the Treatment of Alopecia” (FOLLEA INTERNATIONAL, priority 2023, published 2026)

System: SLC22A9
Experiment: Placebo controlled study of ammonium chloride oral supplement: SLC22A9 expression from hair follicles
Type: in vivo
Conditions: 268 mg ammonium chloride oral supplement daily for 5 days; measured at baseline and day 5; 10 subjects active vs 10 placebo; p=0.01
Description: A placebo controlled study was conducted with a 268 mg ammonium chloride oral supplement to ascertain increase in SLC22A9 up-regulation. Ten subjects were administered the placebo and 10 subjects were administered ammonium chloride daily for 5 days. The SLC22A9 expression from hair follicles was measured at baseline and day 5. SLC22A9 increased 3 folds and was statistically significant p=0.01 increased in the active vs placebo group.

Cl.N [ammonium chloride]
SLC22A9 expression from hair follicles, increase: 3 folds
